Test results taken from US11795460B2, “Compositions and methods for TTR gene editing and treating ATTR amyloidosis” (Intellia Therapeutics, Inc., priority 2017, dated 2023).
Strand notation (5' to 3'): a small letter for the sugar, then the base; units joined by * are phosphorothioate-linked, units joined directly phosphodiester-linked; [ ] holds rarer units or linkages, { } end groups; capitals alone tell only the bases. m = 2'-O-methyl; r = 2'-OH (RNA)

Key:
TTR [1] = assay: TTR editing in HepG2 cells transfected with Spy Cas9 mRNA and dgRNAs (Table 6); format: cell-based, human; conditions: HepG2 cells co-transfected with Spy Cas9 mRNA (SEQ ID NO:2) and dgRNAs
How it was run: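 HepG2 cells were transfected sequentially by lipofection with Spy Cas9 mRNA (100 ng), then crRNA plus tracer RNA (25 nM each), and harvested at 24, 48 or 72 h. Editing was measured by amplicon NGS at the TTR target site as the fraction of reads with indels or substitutions.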

TTR [2] = assay: TTR editing in primary human hepatocytes electroporated with Spy Cas9 protein loaded with dgRNAs (Table 7); format: cell-based; conditions: dgRNA electroporated with Spy Cas9 protein (RNP)
How it was run: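 Primary human or cynomolgus hepatocytes electroporated (Lonza P3 buffer, program EX-147) with Spy Cas9 RNP carrying pre-annealed crRNA/trRNA dual guides. Genomic DNA harvested at 24, 48 or 72 h; target amplicons sequenced by Illumina MiSeq. Percent editing = reads with indels or substitutions over total reads.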

TTR [3] = assay: TTR editing in primary human hepatocytes transfected with Spy Cas9 protein (RNP) loaded with dgRNAs (Table 8); format: cell-based; conditions: dgRNA transfected with Spy Cas9 protein (RNP)
How it was run: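 Primary human hepatocytes were lipofected (RNAiMAX) with RNP of Spy Cas9 (10 nM) plus pre-annealed crRNA (10 nM) and trRNA (10 nM) and harvested 24, 48 or 72 h later. Target-site amplicons were sequenced on Illumina MiSeq and aligned to hg38; percent editing = reads with indels or substitutions over total reads.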

TTR [4] = assay: TTR editing in primary human hepatocytes transfected with Spy Cas9 mRNA and dgRNAs (Table 9); format: cell-based; conditions: dgRNA co-transfected with Spy Cas9 mRNA (SEQ ID NO:2)
How it was run: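 PHH sequentially lipofected with Spy Cas9 mRNA (100 ng), then crRNA plus tracrRNA (25 nM each) dual-guide lipoplex. Cells harvested 24, 48 or 72 h post-transfection; TTR target amplicons sequenced on Illumina MiSeq, editing given as percent reads with indels or substitutions over total reads.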

off-target genomic sites = assay: Off-target oligo insertion based assay in HEK293_Cas9 cells, dgRNAs and sgRNAs (Tables 23, 24); format: cell-based, human; conditions: Table 23; TTR dgRNAs in HekCas9 cells, oligo insertion based assay
Description: An oligo insertion based assay (See, e.g., Tsai et al., Nature Biotechnology 33, 187-197; 2015) was used to determine potential off-target genomic sites cleaved by Cas9 targeting TTR. Forty-five dgRNAs from Table 1 (and two control guides with known off-target profiles) were screened in the HEK293 Cas9 cells. The human embryonic kidney adenocarcinoma cell line HEK293 constitutively expressing Spy Cas9 (“HEK293_Cas9”) was cultured in DMEM media supplemented with 10% fetal bovine serum and 500 μg/ml G418. Cells were plated at a density of 30,000 cells/well in a 96-well plate 24 hours prior to transfection. Cells were transfected with Lipofectamine RNAiMAX (ThermoFisher, Cat. 13778150) per the manufacturer's protocol. Cells were transfected with a lipoplex containing individual crRNA (15 nM), trRNA (15 nM), and donor oligo with (10 nM) Lipofectamine RNAiMAX (0.3 μL/well) and OptiMem. Cells were lysed 24 hours post transfection and genomic DNA was extracting using Zymo's Quick gDNA 96 Extraction kit (catalog #D3012) following the manufacturer's recommended protocol. The gDNA was quantified using the Qubit High Sensitivity dsDNA kit (Life Technologies). Libraries were prepared per the previously described method in Tsai et al, 2015 with minor modifications. Sequencing was performed on Illumina's MiSeq and HiSeq 2500. The assay identified potential off-target sites for some of the crRNAs which are plotted in FIG. 2.
Additionally, a subset of the guides was assessed for off-target potential as modified sgRNAs in the Hek_Cas9 cells via the oligo based insertion method described above. The off-target results were plotted in FIG. 4.

TTR [5] = assay: TTR editing in primary cyno hepatocytes electroporated with Spy Cas9 protein and sgRNAs (Tables 14, 15); format: cell-based, cynomolgus monkey; conditions: Table 15; primary cyno hepatocytes electroporated with Spy Cas9 protein (RNP) and cyno specific sgRNAs
Description: (§1) Primary liver hepatocytes. Primary human liver hepatocytes (PHH) and primary cynomolgus liver hepatocytes (PCH) (Gibco) were cultured per the manufacturer's protocol (Invitrogen, protocol 11.28.2012). In brief, the cells were thawed and resuspended in hepatocyte thawing medium with supplements (Gibco, Cat. CM7000) followed by centrifugation at 100 g for 10 minutes for human and 80 g for 4 minutes for cyno. The supernatant was discarded and the pelleted cells resuspended in hepatocyte plating medium plus supplement pack (Invitrogen, Cat. A1217601 and CM3000). Cells were counted and plated on Bio-coat collagen I coated 96-well plates (ThermoFisher, Cat. 877272) at a density of 33,000 cells/well for human or 60,000 cells/well for cyno (or 65,000 cells/well when assaying effects on TTR protein, described further below). Plated cells were allowed to settle and adhere for 6 or 24 hours in a tissue culture incubator at 37° C. and 5% CO2 atmosphere. After incubation cells were checked for monolayer formation and media was replaced with hepatocyte culture medium with serum-free supplement pack (Invitrogen, Cat. A1217601 and CM4000).
[…] formation was performed prior to electroporation or transfection of Spy Cas9 protein loaded with guide RNAs (RNPs) onto cells. For dual guide (dgRNAs), individual crRNA and trRNA was pre-annealed by mixing equivalent amounts of reagent and incubating at 95° C. for 2 min and cooling to room temperature. Single guide (sgRNAs) were boiled at 95° C. for 2 min and cooling to room temperature. The boiled dgRNA or sgRNA was incubated with Spy Cas9 protein in Optimem for 10 minutes at room temperature to form a ribonucleoprotein (RNP) complex.
For RNP electroporation into primary human and cyno hepatocytes, the cells are thawed and resuspended in Lonza electroporation Primary Cell P3 buffer at a concentration of 2500 cells per μL for human hepatocytes and 3500 cells per μL for cyno hepatocytes. A volume of 20 μL of resuspended cells and 5 μL of RNP are mixed together per guide. 20 μL of the mixture is placed into a Lonza electroporation plate. The cells were electroporated using the Lonza nucleofector with the preset protocol EX-147. Post electroporation, the cells are transferred into a Biocoat plate containing pre-warmed maintenance media and placed in a tissue culture incubator at 37° C. and 5% CO2.
Transfected cells were harvested post-transfection at 24, 48, or 72 hours. The genomic DNA was extracted from each well of a 96-well plate using 50 μL/well BuccalAmp DNA Extraction solution (Epicentre, Cat. QE09050) per manufacturer's protocol. All DNA samples were subjected to PCR and subsequent NGS analyses, as described herein.
(§2) To quantitatively determine the efficiency of editing at the target location in the genome, sequencing was utilized to identify the presence of insertions and deletions introduced by gene editing.
(§3) Primers were designed around the target site within the gene of interest (e.g. TTR), and the genomic area of interest was amplified.
(§4) Additional PCR was performed per the manufacturer's protocols (Illumina) to add chemistry for sequencing. The amplicons were sequenced on an Illumina MiSeq instrument. The reads were aligned to a reference genome (e.g., the human reference genome (hg38), the cynomologus reference genome (mf5), the rat reference genome (rn6), or the mouse reference genome (mm10)) after eliminating those having low quality scores. The resulting files containing the reads were mapped to the reference genome (BAM files), where reads that overlapped the target region of interest were selected and the number of wild type reads versus the number of reads which contain an insertion, substitution, or deletion was calculated.
The editing percentage (e.g., the “editing efficiency” or “percent editing” or “indel frequency”) is defined as the total number of sequence reads with insertions/deletions (“indels”) or substitutions over the total number of sequence reads, including wild type. […]

TTR [6] = assay: TTR editing in primary cyno hepatocytes treated with LNP formulated Spy Cas9 mRNA (SEQ ID NO: 2) and sgRNAs (Tables 17, 18); format: cell-based, cynomolgus monkey; conditions: LNP formulated Spy Cas9 mRNA (SEQ ID NO: 2) and cyno matched sgRNAs, 72 hours post treatment
Description: as §1
In general, the lipid nanoparticle components were dissolved in 100% ethanol with the lipid component of various molar ratios. The RNA cargos were dissolved in 25 mM citrate, 100 mM NaCl, pH 5.0, resulting in a concentration of RNA cargo of approximately 0.45 mg/mL. The LNPs were formulated with a lipid amine to RNA phosphate (N:P) molar ratio of about 4.5 or about 6, with the ratio of mRNA to gRNA at 1:1 by weight.
The LNPs were formed by microfluidic mixing of the lipid and RNA solutions using a Precision Nanosystems NanoAssemblr™ Benchtop Instrument, according to the manufacturer's protocol. A 2:1 ratio of aqueous to organic solvent was maintained during mixing using differential flow rates. After mixing, the LNPs were collected, diluted in water (approximately 1:1 v/v), held for 1 hour at room temperature, and further diluted with water (approximately 1:1 v/v) before final buffer exchange. The final buffer exchange into 50 mM Tris, 45 mM NaCl, 5% (w/v) sucrose, pH 7.5 (TSS) was completed with PD-10 desalting columns (GE). If required, formulations were concentrated by centrifugation with Amicon 100 kDa centrifugal filters (Millipore). The resulting mixture was then filtered using a 0.2 μm sterile filter. The final LNP was stored at −80° C. until further use.
as §2, §3, §4
The editing percentage (e.g., the “editing efficiency” or “percent editing” or “indel frequency”) is defined as the total number of sequence reads with insertions/deletions (“indels”) or substitutions over the total number of sequence reads, including wild type.
Lipid nanoparticle formulations of modified sgRNAs targeting human TTR and the cyno matched sgRNA sequences were tested on primary human hepatocytes and primary cyno hepatocytes in a dose response curve. Primary human and cyno hepatocytes were plated as described in Example 1. […]

## UCACAGAAACACUCACCGUA (tested as dual guide RNA, chemistry not given here) [CR005300]
TTR [1]
  Avg % Deletion: 11.15%
  Avg % Edit: 64.34%
  Avg % Insert: 53.20%
TTR [2]
  Avg % Deletion: 4.10%
  Avg % Edit: 57.47%
  Avg % Insert: 53.47%
TTR [3]
  Avg % Deletion: 3.61%
  Avg % Edit: 57.23%
  Avg % Insert: 53.62%
TTR [4]
  Avg % Deletion: 3.97%
  Avg % Edit: 31.53%
  Avg % Insert: 27.60%
off-target genomic sites
  # Sites (off-target integration sites detected): 0

## UCCACUCAUUCUUGGCAGGA (tested as dual guide RNA, chemistry not given here) [CR005298]
TTR [1]
  Avg % Deletion: 21.36%
  Avg % Edit: 42.65%
  Avg % Insert: 21.29%
TTR [2]
  Avg % Deletion: 17.57%
  Avg % Edit: 39.90%
  Avg % Insert: 22.37%
TTR [3]
  Avg % Deletion: 10.95%
  Avg % Edit: 32.07%
  Avg % Insert: 21.12%
TTR [4]
  Avg % Deletion: 11.60%
  Avg % Edit: 15.70%
  Avg % Insert: 4.13%
off-target genomic sites
  # Sites (off-target integration sites detected): 0

B1: G000510: TTR Cyno specific sgRNA modified sequence, SEQ ID No. 122; guide sequence of CR005370 (nucleic acid)
guide: mA*mC*mU*rUrGrUrCrUrUrCrUrCrUrArUrArCrCrCrArGrUrUrUrUrArGrAmGmCmUmAmGmAmAmAmUmAmGmCrArArGrUrUrArArArArUrArArGrGrCrUrArGrUrCrCrGrUrUrArUrCrAmAmCmUmUmGmAmAmAmAmAmGmUmGmGmCmAmCmCmGmAmGmUmCmGmGmUmGmCmU*mU*mU*mU
TTR [5]
  Avg % Deletion: 1.77%
  Avg % Edit: 90.80%
  Avg % Insert: 89.13%
TTR [6]
  12.5 ng mRNA, 3.9 nM sgRNA % Edit: 61.87%
